Assay results reported in PubChem BioAssay AID1996.
≈ marks a conversion by molar mass, not a printed value.

Settings: buffer; pH 7.4; 200.0 µM

SMILES	solubility kinetic [mg/mL]
S=C1NCN(C2CCCCC2)CN1c1ccccc1	> 0.0413
O=C(/C=C/c1ccco1)NC(=S)Nc1cccc(C(=O)O)c1	> 0.0474
O=c1c2ccccc2nc2n1CCS2(=O)=O	0.0346 (≈ 146 µM)
Cc1ccnc(NC(=O)CNC(=O)c2ccc(C)s2)c1	> 0.0434
NC(=S)N/N=C/c1c[nH]c2ccccc12	> 0.0327
CCN(CC)C(=O)c1cccc2nc3ccccc3nc12	> 0.0419
O=[N+]([O-])c1cccc(S(=O)(=O)NCCc2cccs2)c1	> 0.0469
Cc1[nH]c(=O)[nH]c(=O)c1N1CCOCC1	> 0.0317
CCc1cc2cc(C)ccc2nc1SCC(=O)NC1CCCC1	< 0.0004
CC(=O)Nc1ccc(NC(=O)COC(=O)C2CCCCC2)cc1	> 0.0478
COc1ccc(NS(=O)(=O)c2ccc(O)c(NS(=O)(=O)c3ccc(NC(C)=O)cc3)c2)cc1	> 0.0737
Cc1cc(NC(=O)COc2ccc(C)c(C)c2)no1	0.0007 (≈ 2.69 µM)
Clc1ccccc1CSc1nncn1-c1cccnc1	> 0.0454
Cc1nc2ccccc2c(=O)n1-c1ccc(Cl)cc1Cl	> 0.0458
COc1ccc(CNC(=O)c2cccnc2)cc1	> 0.0363
CC1=NCCN1CCNC(=O)Nc1cc(C)cc(C)c1	0.04 (≈ 146 µM)
CC(C)CC(=O)N/C(N)=N/c1nc2ccccc2o1	0.0013 (≈ 4.99 µM)
CCc1ccccc1NC(=O)C1CCCC1	0.0297 (≈ 137 µM)
Cc1ccccc1NC(=O)CN1C(=O)CSc2ccccc21	0.0036 (≈ 11.5 µM)
N#Cc1cnc(Oc2ccc(Cl)cc2)nc1N	0.0043 (≈ 17.4 µM)
CS(=O)(=O)c1ccc(C(=O)Nc2ccccc2Cl)cc1	> 0.0465
COc1cccc(N2CCN(C(=S)Nc3ccc(C)cc3C)CC2)c1	0.0006 (≈ 1.69 µM)
Cc1cc(Cc2cc(C)c(N)cc2C)c(C)cc1N	> 0.0382
COC(=O)c1c(C)[nH]c(C(=O)OCc2csc(CC(=O)Nc3ccccc3C)n2)c1C	0.0074 (≈ 16.8 µM)
Cc1ccc(S(=O)(=O)Nc2nc3ccc(N)cc3s2)cc1	0.0458 (≈ 143 µM)

SMILES	solubility kinetic [mg/mL]
CC(C)N(CC(N)=O)C(=O)c1sc2cc(F)ccc2c1Cl	0.045 (≈ 137 µM)
S=C(NC1CCCCC1)N1CCn2cccc2C1c1cccnc1 (stereo unspecified)	> 0.0511
CCCn1c(=O)c2c(nc3n2CCCN3Cc2ccccc2)n(C)c1=O	0.0176 (≈ 49.8 µM)
FC(F)(F)c1ccc(NCc2ccccn2)nc1	> 0.038
COc1ccc(N2CCN(c3ccc(Cl)nn3)CC2)cc1	> 0.0457
CC(=O)O/C(=C\c1cn(C(C)=O)c2ccccc12)C(=O)O	> 0.0431
CC(Nc1ccccc1)c1ccncc1 (stereo unspecified)	> 0.0297
COc1ccc(C(=O)OCC(=O)N2C(C)CCCC2C)cc1S(=O)(=O)N1CCOCC1 (stereo unspecified)	> 0.0682
O=C(COc1cc(F)ccc1[N+](=O)[O-])NCC1CCCO1 (stereo unspecified)	> 0.0447
CN(CCC#N)Cc1cc(=O)oc2ccc3ccccc3c12	0.0335 (≈ 115 µM)
Cc1cc(C)cc(NC(=S)N2CCC(NC(=O)C3CC3)CC2)c1	> 0.0497
COc1ccc(NC(=O)COC(=O)C2CC3C=CC2C3)cc1 (stereo unspecified)	> 0.0452
FC(F)(F)c1nc(NCc2cccnc2)c2ccccc2n1	0.0026 (≈ 8.54 µM)
Nc1ccccc1-n1c(=O)n(Cc2ccccc2F)c(=O)c2[nH]cnc21	0.035 (≈ 99.6 µM)
O=[N+]([O-])c1ccc(Nc2cccc(F)c2)nc1	0.0134 (≈ 57.5 µM)
O=C(COC(=O)c1ccc(O)cc1)Nc1ccccc1	> 0.0407
Cc1ccc2nc(/C(C#N)=C/c3ccccc3C(=O)O)[nH]c2c1	> 0.0455
O=C(O)/C=C/c1cccc(NC(=O)Nc2ccc([N+](=O)[O-])cc2)c1	> 0.0491
Cc1ccc(S(=O)(=O)N2CC[C@@H]2C(=O)O)cc1	> 0.0383
Cc1nn(C)cc1S(=O)(=O)Nc1ccc(C(F)(F)F)cc1	> 0.0479
O=C(N/N=C/c1ccccc1O)C(=O)N1CCCCCC1	> 0.0434
Nc1cccc(NP(=O)(c2ccccc2)c2ccccc2)c1	0.0017 (≈ 5.51 µM)
Cn1c(=O)oc2cc(S(=O)(=O)NC3CCCCC3)ccc21	> 0.0466
COc1ccc(C=NNC(=O)c2cc(C)oc2C)cc1O	> 0.0432
O=C1c2ccccc2C2(c3ccccc3)NCCCN12 (stereo unspecified)	> 0.0396

SMILES	solubility kinetic [mg/mL]
CCOC(=O)C1=C(CN2CCCCCC2)NC(=O)NC1c1ccc2c(c1)OCO2 (stereo unspecified)	0.0535 (≈ 133 µM)
Cc1cccc2c(=O)cc(C(F)(F)F)[nH]c12	> 0.0341
Cc1ccc(N=Cc2c(O)c3ccccc3n(C)c2=O)cc1	0.0033 (≈ 11.3 µM)
CCc1ccc(NS(=O)(=O)c2c(C)noc2C)cc1	> 0.0421
Cc1cccc(NC(=O)CCNC(=O)c2ccccc2)c1	0.0415 (≈ 147 µM)
COc1ccc(-c2nc(N)ncc2-c2ccc(OC)c(OC)c2)c(O)c1	0.001 (≈ 2.83 µM)
Cc1ccc(SCCC(=O)Nc2nccs2)cc1	0.0025 (≈ 8.98 µM)
Cc1nc(COc2cccc(Cl)c2)sc1C(=O)/C=C/N(C)C	> 0.0505
O=C(O)CC(CN1C(=O)c2ccccc2C1=O)c1ccccc1 (stereo unspecified)	> 0.0464
CC(NC(=O)COC(=O)c1ccc(N2CCCC2=O)cc1)c1ccc(F)cc1 (stereo unspecified)	0.0082 (≈ 21.3 µM)
O=C(Nc1ccccc1-c1ccccc1)c1ccccc1Br	0.0337 (≈ 95.7 µM)
CSc1cccc(CN2CCC(CCC(=O)NC3CC3)CC2)c1	> 0.0499
CN(Cc1ccccc1F)C(=O)CCCNC(=O)c1ccc(Cl)cc1	0.0324 (≈ 89.3 µM)
Cn1c(=O)c2c(nc(NC3CCCC3)n2C)n(C)c1=O	> 0.0416
Cc1ccc(C(=O)Nc2ccc3c(c2)C(=O)N(CC2CCCO2)C3=O)cc1 (stereo unspecified)	0.001 (≈ 2.74 µM)
Cc1ccc(N=CC2=C(O)CC(c3ccccc3Cl)CC2=O)cc1 (stereo unspecified)	< 0.0007
COC(=O)c1ccc(N2CCN(c3ccccc3)CC2)nc1	0.0017 (≈ 5.72 µM)
Cc1cccn2cc(-c3ccc4c(c3)NC(=O)CO4)nc12	0.0079 (≈ 28.3 µM)
O=C(Nc1ccccn1)c1ccc(C(=O)c2ccccc2)cc1	0.0216 (≈ 71.4 µM)
CN(c1ccccc1)S(=O)(=O)c1ccc2[nH]c(=O)[nH]c2c1	0.0166 (≈ 54.7 µM)
CCCCn1cc2c(c1-c1cccc(C)c1)c(=O)n(C)c(=O)n2C	0.014 (≈ 43 µM)
COc1ccc(CCNC(=O)c2cccn2C)cc1	0.0333 (≈ 129 µM)
CC(Oc1ccc([N+](=O)[O-])cc1)C(=O)NCC1CCCO1 (stereo unspecified)	> 0.0441
O=C(COC(=O)CCSc1ccccc1)Nc1ccccc1	0.0416 (≈ 132 µM)
COc1ccccc1CNC(=O)COC(=O)c1cc2ccccc2o1	0.0038 (≈ 11.2 µM)

SMILES	solubility kinetic [mg/mL]
COc1ccc(/C=C/C(=O)OCC(=O)NC(C)CCc2ccccc2)cc1OC (stereo unspecified)	0.0239 (≈ 60.1 µM)
O=C(Nc1ccccc1)C1CCCN(C(=O)c2ccc(F)cc2)C1 (stereo unspecified)	> 0.049
O=C(NC(=S)NC1CCCCC1)c1ccc(Cl)cc1	< 0.0003
O=C(c1cccc(F)c1)N1CCCC(C(=O)N2CCCCC2)C1 (stereo unspecified)	> 0.0478
Nc1c(Br)c(=O)[nH]c(=O)n1-c1ccc(F)cc1	0.0253 (≈ 84.3 µM)
COc1ccc(C(=O)NC2CCN(C(=O)NCc3ccccc3)CC2)cc1	0.0054 (≈ 14.7 µM)
CC(OC(=O)CC1CCCCC1)C(=O)Nc1cccc(C#N)c1 (stereo unspecified)	0.0371 (≈ 118 µM)
Cc1cccc(-n2cnc3sc(C)c(C)c3c2=O)c1	0.0025 (≈ 9.25 µM)
COC(=O)c1ccccc1NC(=O)CCn1c(=O)oc2ccccc21	> 0.0511
O=C(COC(=O)c1c(Cl)cccc1Cl)NCc1cccs1	> 0.0516
CCCC(=O)N1CCN(c2nc3ccc(Cl)cc3s2)CC1	0.0463 (≈ 143 µM)
N#Cc1ccc(CN2C(=O)NC3(CCCCCC3)C2=O)cc1	0.0257 (≈ 86.4 µM)
CN(C)CCNC(=O)C(=O)C1C(=O)Nc2ccccc21 (stereo unspecified)	> 0.0413
CCN(CC)CC(=O)Nc1sc(C)cc1C(=O)c1ccccc1	0.0025 (≈ 7.57 µM)
Cc1c(C)n(CCC(=O)O)c2ccccc12	> 0.0326
CCC(=O)c1cn(CC(=O)Nc2ccc(OC)cc2)c2ccccc12	< 0.0004
CC(=O)c1c(C)[nH]c(C(=O)/C(C#N)=C/c2cccc(C)c2)c1C	0.0395 (≈ 129 µM)
OCCC1CN(CC#Cc2ccccc2)CCN1C1CCCC1 (stereo unspecified)	> 0.0469
NC(=O)Nc1ccc(Cl)cc1	> 0.0256
Cc1cc(Br)ccc1OCCN1CCCC1.O=C(O)C(=O)O	> 0.0561
C/C(=C\c1ccc(N)cc1)c1nc2ccccc2[nH]1	> 0.0374
Cc1ccc(NC(=O)CCCC2CCCCC2)c(O)c1	< 0.0006
COc1nc2ccccc2nc1N1CCN(c2ccc(F)cc2)CC1	< 0.0002
Cc1ccc(N2C(=O)[C@@H]3C(c4cccnc4)=NO[C@@H]3C2=O)cc1	> 0.0461
O=C(c1cn(Cc2ccccc2)c2ccccc12)N1CCCCC1	0.0306 (≈ 96.1 µM)

SMILES	solubility kinetic [mg/mL]
COc1ccc(NC(=O)c2ccc3c(c2)OCCO3)cc1OC	0.0103 (≈ 32.7 µM)
Cc1ccc(OCC(=O)Nc2ccon2)c([N+](=O)[O-])c1	0.0045 (≈ 16.2 µM)
CCN(CC)CCNC(=O)c1ccc(NC(=O)Cc2ccsc2)cc1	0.0494 (≈ 137 µM)
Cc1ccccc1C(=O)NC(=S)N(Cc1ccccc1)c1ccccn1	> 0.0542
COc1ccccc1OCC(O)CN1CCOCC1 (stereo unspecified)	0.0374 (≈ 140 µM)
O=C(c1cc2cc(Br)ccc2[nH]1)N1CCc2ccccc21	< 0.0004
Cc1cccc(Nc2ncnc(N)c2[N+](=O)[O-])n1	> 0.0369
O=C(Nc1nccs1)c1ccc2ccccc2n1	0.0056 (≈ 21.9 µM)
O=c1c2ccccc2cnn1Cc1n[nH]c(=S)n1-c1ccccc1F	> 0.053
COc1ccccc1NC(=O)NCCN1CCNC1=O	0.0397 (≈ 143 µM)
O=c1oc2ccccc2c(NCc2ccc(Cl)cc2)c1[N+](=O)[O-]	0.0014 (≈ 4.23 µM)
COc1ccc(C(=O)/C=C/c2ccc(N(C)C)cc2)c(OC)c1	0.0032 (≈ 10.3 µM)
O=C(O)Cc1ccc(S(=O)(=O)N2CCCC2)s1	> 0.0413
O=C(Nc1ccccc1)c1cccc(C(=O)Nc2ccccc2)n1	0.0003 (≈ 0.945 µM)
Cc1ccc2c(CN3CCCCC3C)cc(=O)oc2c1C.Cl (stereo unspecified)	0.0209
COc1cc(N/C(N)=N/c2nc(C)cc(C)n2)cc(OC)c1	> 0.0452
O=C(Nc1ccc(NC(=O)C2CC2)cc1)c1ccco1	> 0.0405
COc1cccc(CC(=O)Nc2nc3ccccc3[nH]2)c1	0.0022 (≈ 7.82 µM)
CCCC(=O)Nc1nnc(-c2ccc3c(c2)OCCO3)o1	> 0.0434
O=C1C/C(=C\c2c(F)cccc2Cl)N2CCC1CC2	0.0397 (≈ 142 µM)
COc1cccc(NC(=O)c2ccccc2-c2ccccc2C(=O)O)c1	0.0519 (≈ 149 µM)
